31 compounds from patent EP1681292A1, “3-Amino-6-aryl(or 6-heteroaryl)-thieno¬2,3-b|pyridin-2-carboxylic acid amides, pharmaceutical compositions comprising the said and their use as inhibitors of TNFalpha release” (IBFB Pharma GmbH, priority 2005, dated 2006) can be followed below.

In this test the test system is TNFα-Freisetzung. Kind of test: Inhibition of TNFα release after LPS stimulation of human whole blood (ELISA). It is filed as cell-based. The settings on record: human whole blood diluted 1:5 with RPMI 1640, LPS (Salmonella abortus equi) 1 µg/ml, 24 h at 37°C, TNFα in supernatant by ELISA; read-out: Hemmung der TNFα-Freisetzung, EC50. An excerpt: Methodenbeschreibung der Hemmung der TNFα Freisetzung nach LPS Stimulation von humanem Vollblut
Die Stimulierung isolierter Leukozyten für die Freisetzung von Zytokinen kann auf verschiedenen Wegen erfolgen. Lipopolysaccharide (LPS) stellen einen Stimulus für die Untersuchung der Freisetzung von TNFα dar. LPS ist Bestandteil bakterieller Zellwände und wird beim Abtöten der Bakterien (durch Antibiotika oder das natürliche Immunsystem) freigesetzt. LPS stimuliert insbesondere die Aktivität phagozytierender Leukozyten (Gewebsmakrophagen, Granulozyten, Monozyten) und verursacht die Infiltration von Leukozyten vom peripheren Blut in das betroffene Gewebe. Ein Zytokin von besonderer Bedeutung für diese Mechanismen ist TNFα, das in großen Mengen durch die betroffenen Zellen sezerniert wird. Hauptquelle dabei sind Monozyten und Makrophagen. TNFα initiiert und prolongiert den Entzündungsprozess im Zusammenspiel mit anderen Mediatoren.
Für die Untersuchung des Effektes auf die LPS-induzierte TNFα-Freisetzung wurde eine Methode verwendet, die von MARX et al. (Marx D, Tassabehji M, Heer S, Hüttenbrink KB, Szelenyi I (2002) Pulmonary Pharmacology & Therapeutics 15 7-15) beschrieben wurde. Die Methodenbeschreibung in verkürzter Darstellung: Humanes Blut verschiedener Spendern wird durch Zusatz von 10 mM Na-Citrat ungerinnbar gemacht und 1:5 mit RPMI 1640 Zellkulturmedium verdünnt. Die Verbindungen der allgemeinen Formel 1 sowie die Kontrollsubstanzen (z.B. Dexamethason) wurden den Blutproben in verschiedenen Konzentrationen hinzugefügt. 15 Minuten später wurden die Leukozyten durch Zusatz von Lipopolysacchariden (LPS) (aus Salmonella abortus equi) in einer Endkonzentration von 1 µg/ml stimuliert. Nach Inkubation der Testansätze für 24 Stunden bei 37°C. und unter 5% CO2 in wassergesättigter Luft, wurde das Blut zentrifugiert und die Konzentration an TNFα im zellfreien Überstand unter Verwendung eines käuflichen ELISA (BD Biosciences) nach Angaben des Herstellers exakt vermessen.
In general terms: ELISA stands for enzyme-linked immunosorbent assay.
As to `Cc1ccc(-c2cc(C(F)F)c3c(N)c(C(N)=O)sc3n2)cc1` [Beispiel 11, 3-Amino-4-difluormethyl-6-(4-methyl-phenyl)-thieno[2,3-b]pyridin-2-carbonsäureamid], the EC50 was less than 5 nM.

On to `CCc1ccc(-c2cc(C(F)(F)F)c3c(N)c(C(N)=O)sc3n2)cc1` [Beispiel 15, 3-Amino-6-(4-ethyl-phenyl)-4-trifluormethyl-thieno[2,3-b]pyridin-2-carbonsäureamid], for which the EC50 is less than 5 nM.

Turning to `NC(=O)c1sc2nc(-c3ccc4ccccc4c3)cc(C(F)(F)F)c2c1N` [Beispiel 25, 3-Amino-6-(2-naphthyl)-4-trifluormethyl-thieno[2,3-b]pyridin-2-carbonsäureamid], the EC50 was less than 5 nM. With `CC(C)c1ccc(-c2cc(C(F)(F)F)c3c(N)c(C(N)=O)sc3n2)cc1` [Beispiel 12, 3-Amino-6-(4-isopropyl-phenyl)-4-trifluormethyl-thieno[2,3-b]pyridin-2-carbonsäureamid], the EC50 was less than 5 nM. `Cc1ccc(-c2cc(C(F)(F)F)c3c(N)c(C(N)=O)sc3n2)cc1` [Beispiel 14, 3-Amino-6-(4-methyl-phenyl)-4-trifluormethyl-thieno[2,3-b]pyridin-2-carbonsäureamid]: the EC50 was less than 5 nM. The figure for `NC(=O)c1sc2nc(-c3ccccc3)cc(C(F)(F)F)c2c1N` [Beispiel 13, 3-Amino-6-phenyl-4-trifluormethyl-thieno[2,3-b]pyridin-2-carbonsäureamid] is less than 5 nM. For `NC(=O)c1sc2nc(-c3ccc4c(c3)OCCO4)cc(C(F)(F)F)c2c1N` [3-Amino-6-(3,4-dioxoethylen-phenyl)-4-trifluormethyl-thieno[2,3-b]pyridin-2-carbonsäureamid], the EC50 was less than 5 nM. The figure for `Cc1cc(-c2ccc(F)cc2)nc2sc(C(N)=O)c(N)c12` [Beispiel 6, 3-Amino-6-(4-fluor-phenyl)-4-methyl-thieno[2,3-b]pyridin-2-carbonsäureamid] is less than 5 nM; for `NC(=O)c1sc2nc(-c3ccc(F)cc3)cc(C(F)(F)F)c2c1N` [Beispiel 21, 3-Amino-6-(4-fluor-phenyl)-4-trifluormethyl-thieno[2,3-b]pyridin-2-carbonsäureamid] it is less than 5 nM. For `CCc1cc(-c2ccc(SC)cc2)nc2sc(C(N)=O)c(N)c12` [Beispiel 31, 3-Amino-4-ethyl-6-(4-methylthio-phenyl)-thieno[2,3-b]pyridin-2-carbonsäureamid], the EC50 is less than 5 nM. In the case of `NC(=O)c1sc2nc(-c3cccs3)cc(C(F)(F)F)c2c1N` [3-Amino-6-(2-thienyl)-4-trifluormethyl-thieno[2,3-b]pyridin-2-carbonsäureamid], the EC50 is less than 5 nM. As for `COc1ccc(-c2cc(C(F)(F)F)c3c(N)c(C(N)=O)sc3n2)cc1` [Beispiel 19, 3-Amino-6-(4-methoxy-phenyl)-4-trifluormethyl-thieno[2,3-b]pyridin-2-carbonsäureamid], the EC50 is less than 5 nM. The figure for `COc1ccc(-c2cc(C)c3c(N)c(C(N)=O)sc3n2)cc1` [Beispiel 4, 3-Amino-4-methyl-6-(4-methoxy-phenyl)-thieno[2,3-b]pyridin-2-carbonsäureamid] is less than 5 nM; for `Cc1cc(-c2ccc3c(c2)OCO3)nc2sc(C(N)=O)c(N)c12` [Beispiel 9, 3-Amino-6-(3,4-dioxomethylen-phenyl)-4-methyl-thieno[2,3-b]pyridin-2-carbonsäureamid] it is less than 5 nM. To `Cc1cc(-c2ccc(Cl)cc2)nc2sc(C(N)=O)c(N)c12` [3-Amino-6-(4-chlor-phenyl)-4-methyl-thieno[2,3-b]pyridin-2-carbonsäureamid] belongs less than 5 nM. As to `CSc1ccc(-c2cc(C)c3c(N)c(C(N)=O)sc3n2)cc1` [3-Amino-4-methyl-6-(4-methylthio-phenyl)-thieno[2,3-b]pyridin-2-carbonsäureamid], the EC50 is less than 5 nM. Consider `CCCc1ccc(-c2cc(C(F)(F)F)c3c(N)c(C(N)=O)sc3n2)cc1` [Beispiel 16, 3-Amino-6-(4-propyl-phenyl)-4-trifluormethyl-thieno[2,3-b]pyridin-2-carbonsäureamid], for which the EC50 is less than 5 nM.

`CCOc1ccc(-c2cc(C(F)(F)F)c3c(N)c(C(N)=O)sc3n2)cc1` [Beispiel 20, 3-Amino-6-(4-ethoxy-phenyl)-4-trifluormethyl-thieno[2,3-b]pyridin-2-carbonsäureamid]: the EC50 is less than 5 nM. For `Cc1cccc(-c2cc(C)c3c(N)c(C(N)=O)sc3n2)c1` [Beispiel 2, 3-Amino-4-methyl-6-(3-methyl-phenyl)-thieno[2,3-b]pyridin-2-carbonsäureamid], the EC50 is less than 5 nM. On to `NC(=O)c1sc2nc(-c3ccc(Cl)cc3)cc(C(F)(F)F)c2c1N` [Beispiel 22, 3-Amino-6-(4-chlor-phenyl)-4-trifluormethyl-thieno[2,3-b]pyridin-2-carbonsäureamid], for which the EC50 is less than 5 nM. As to `Cc1ccc(-c2cc(C)c3c(N)c(C(N)=O)sc3n2)cc1` [Beispiel 3, 3-Amino-4-methyl-6-(4-methyl-phenyl)-thieno[2,3-b]pyridin-2-carbonsäureamid], the EC50 is less than 5 nM.

Turning to `CSc1ccc(-c2cc(C(F)(F)F)c3c(N)c(C(N)=O)sc3n2)cc1` [3-Amino-6-(4-methylthio-phenyl)-4-trifluormethyl-thieno[2,3-b]pyridin-2-carbonsäureamid], the EC50 is less than 5 nM. `NC(=O)c1sc2nc(-c3ccc(Br)cc3)cc(C(F)(F)F)c2c1N` [Beispiel 23, 3-Amino-6-(4-brom-phenyl)-4-trifluormethyl-thieno[2,3-b]pyridin-2-carbonsäureamid]: the EC50 is less than 5 nM.

On to `Cc1cc(-c2cccs2)nc2sc(C(N)=O)c(N)c12` [Beispiel 10, 3-Amino-4-methyl-6-(2-thienyl)-thieno[2,3-b]pyridin-2-carbonsäureamid], for which the EC50 is less than 5 nM. To `CCc1cc(-c2ccc(C)cc2)nc2sc(C(N)=O)c(N)c12` [Beispiel 27, 3-Amino-4-ethyl-6-(4-methyl-phenyl)-thieno[2,3-b]pyridin-2-carbonsäureamid] belongs less than 5 nM. As to `Cc1cc(-c2ccc(Br)cc2)nc2sc(C(N)=O)c(N)c12` [Beispiel 7, 3-Amino-6-(4-brom-phenyl)-4-methyl-thieno[2,3-b]pyridin-2-carbonsäureamid], the EC50 was less than 5 nM.

Regarding `Cc1cc(-c2ccc3c(c2)OCCO3)nc2sc(C(N)=O)c(N)c12` [3-Amino-6-(3,4-dioxoethylen-phenyl)-4-methyl-thieno[2,3-b]pyridin-2-carbonsäureamid], the EC50 was less than 5 nM. The figure for `CCc1cc(-c2ccc(Cl)cc2)nc2sc(C(N)=O)c(N)c12` [Beispiel 30, 3-Amino-6-(4-chlor-phenyl)-4-ethyl-thieno[2,3-b]pyridin-2-carbonsäureamid] is less than 5 nM. For the compound `Cc1ccc(-c2cc(C(F)(F)F)c3c(N)c(C(N)=O)sc3n2)cc1C` [Beispiel 18, 3-Amino-6-(3,4-dimethyl-phenyl)-4-trifluormethyl-thieno[2,3-b]pyridin-2-carbonsäureamid], the EC50 is less than 5 nM. Consider `Cc1cc(-c2ccccc2)nc2sc(C(N)=O)c(N)c12` [Beispiel 8, 3-Amino-4-methyl-6-phenyl-thieno[2,3-b]pyridin-2-carbonsäureamid], for which the EC50 is less than 5 nM. To `NC(=O)c1sc2nc(-c3ccc4c(c3)OCO4)cc(C(F)(F)F)c2c1N` [Beispiel 26, 3-Amino-6-(3,4-dioxomethylen-phenyl)-4-trifluormethyl-thieno[2,3-b]pyridin-2-carbonsäureamid] belongs less than 5 nM.

For orientation: EC50 means the concentration that produces a half-maximal response.
